Assay results as given in patent US12527794B2, “Compositions, formulations, and methods for hair treatment” (Oddity Labs, LLC, priority 2021, dated 2026).

What was measured:
Type in all cases: cell-based
[1] = tested on: human hair follicle dermal papilla cells (hFDPC); experiment: Human follicle dermal papilla cell (hFDPC) proliferation, cell viability assay; conditions: hFDPCs supplemented with BIO, BMP-2 and FGFβ
Description: The ability of a compound or salt of the present disclosure to increase proliferation of human hair follicle dermal papilla cells (hFDPC) was tested using a cell viability assay, such as the Promega CellTiter-Glo® Luminescent Cell Viability Assay, MTT cell proliferation assay (ATCC® 30-1010K) or cell counting. […] In Table 8, A represents less than 20% of increased proliferation of hFDPCs, B represents 20-40%, and C represents larger than 40% of increased proliferation of hFDPCs. For this assay, hFDPCs were cultured on tissue culture-treated plastic and supplemented with 6-bromoindirubin-39-Oxime (BIO), recombinant bone morphogenetic protein-2 (BMP-2), and basic fibroblast growth factor (FGFβ), whose combination was previously found to preserve in situ dermal papilla gene signatures.

HepG2 cells = experiment: Caspase 3/7 activity in HepG2 cells; conditions: HepG2, >2-log concentration range
Description: Cells were treated with either the exemplary compounds or vehicle control containing correspondingly % v/v-matched amounts of DMSO spanning a >2-log concentration range. Data represents mean±s.d. and representative of at least 2 experimental replicates.
HepG2 cells are an immortalized liver cell line commonly used to study apoptosis induced by small molecules. Cells were treated with either the exemplary compounds or vehicle control containing correspondingly % v/v-matched amounts of DMSO spanning a >2-log concentration range. Data represents mean±s.d. and representative of at least 2 experimental replicates.

TK.6 lymphoblasts = experiment: TK.6 micronucleus assay
Description: (§1) The safety/toxicology profiles of a compound or salt of the present disclosure was evaluated via a series of in vitro genotoxicity assays, including the SOS-chromotest to determine bacterial genotoxicity, and the TK.6 micronucleus assay to determine chromosomal damage and forward mutations. Standard reactive oxygen species (ROS) and caspase 3/7 assay were conducted to determine general cellular toxicity. Moreover, a series of sensitization tests were conducted to predict any potential skin sensitivity. These include the direct peptide reactivity assay to evaluate haptenization, the KeratinoSens reporter assay to determine potential sensitivity via the activation of a cytoprotective pathway, and an immunological assay using human immature monocyte-derived dendritic cells to evaluate any potential immunogenicity.
TK.6 lymphoblasts are a well-studied cell line commonly used for gene mutation analyses. They are heterozygous for the thymidine kinase gene (TK) and enable the detection of forward mutations and chromosomal damage, which manifests as micronuclei and are detectable via flow cytometry.
TK.6 cells were dosed with the exemplary compounds or a vehicle control (0.1% v/v DMSO) and cultured with or without S9 metabolic activation for 24 hr. […] Methyl methanesulfonate, a known genotoxic, alkylating agent was used as a positive control for micronuclei detection.
The micronucleus assay was also performed to determine if the compounds are genotoxic by evaluating the presence of micronuclei. […] I-17 elicited genotoxicity at >3.125 μg/mL.

[2] = tested on: follicle dermal papilla cells; experiment: Reactive oxygen species (ROS) activity in follicle dermal papilla cells; conditions: 5 μg/mL, 24 hr, relative to vehicle control 0.1% v/v DMSO
Description: Normalized reactive oxygen species (ROS) activity in follicle dermal papilla cells were analyzed after treatment with 5 μg/mL exemplary compounds relative to vehicle control (0.1% v/v DMSO) after 24 hr. The increase in ROS levels is harmful on cell mhemeostasis, structures, and functions and results in oxidative stress.

bacteria = experiment: SOS chromotest (β-galactosidase activity); conditions: varying concentrations; 4-NQ as known genotoxin
Description: The SOS chromotest is a well-established bacteria-based test for genotoxicity.
as §1

Nrf2-ARE pathway = experiment: KeratinoSens Nrf2-ARE luciferase reporter assay; conditions: cinnamic aldehyde as known sensitizing compound
Description: The Nrf2-ARE pathway is a master regulator of cytoprotective responses to oxidative stress, and is an early indicator of skin sensitization. Nrf2 (nuclear factor erythroid 2-related factor) is a transcription factor that binds to antioxidant responsive elements (ARE). By fusing ARE to the light-producing luciferase gene, a KeratinoSens Nrf2-ARE reporter assay was performed whereby luciferase signal is directly correlated to Nrf2-ARE pathway activation.
Normalized ARE-luciferase activity was measured using a known sensitizing compound (cinnamic aldehyde) and exemplary compounds.

SMILES | Percent Increase Proliferation of hFDPCs (%) [1] | other results
CCCCN1CCc2cc(/C=C3\C(=O)NC(=O)N(C)C3=O)ccc21 [Compound I-12, 2,4,6(1H,3H,5H)-Pyrimidinetrione, 5-[(1-butyl-2,3-dihydro-1H-indol-5-yl)methylene]-1-methyl-] | B (B represents 20-40%) | 
CN1C(=O)NC(=O)/C(=C/c2cnc(N(C)C)nc2)C1=O [Compound I-13, 2,4,6(1H,3H,5H)-Pyrimidinetrione, 5-[[2-(dimethylamino)-5-pyrimidinyl]methylene]-1-methyl-] | A (A represents less than 20% of increased proliferation of hFDPCs) | 
CN1C(=O)NC(=O)/C(=C\c2cccc(OCC(=O)O)c2)C1=O [Compound I-14, Acetic acid, 2-[3-[(tetrahydro-1-methyl-2,4,6-trioxo-5(2H)-pyrimidinylidene)methyl]phenoxy]-] | A (A represents less than 20% of increased proliferation of hFDPCs) | 
COc1cc([N+](=O)[O-])cc(/C=C2\C(=O)NC(=O)N(C)C2=O)c1O [Compound I-15, 2,4,6(1H,3H,5H)-Pyrimidinetrione, 5-[(2-hydroxy-3-methoxy-5-nitrophenyl)methylene]-1-methyl-] | B (B represents 20-40%) | 
C=CCc1cc(/C=C2\C(=O)NC(=O)N(C)C2=O)cc(OC)c1O [Compound I-16, 2,4,6(1H,3H,5H)-Pyrimidinetrione, 5-[[4-hydroxy-3-methoxy-5-(2-propen-1-yl)phenyl]methylene]-1-methyl-] | A (A represents less than 20% of increased proliferation of hFDPCs) | 
C=CCc1cc(/C=C2\C(=O)NC(=S)N(c3ccc(OC)cc3)C2=O)cc(OC)c1O [Compound I-17, 4,6(1H,5H)-Pyrimidinedione, dihydro-5-[[4-hydroxy-3-methoxy-5-(2-propen-1-yl)phenyl]methylene]-1-(4-methoxyphenyl)-2-thioxo-] | C (C represents larger than 40% of increased proliferation of hFDPCs) | normalized caspase 3/7 activity (HepG2 cells): significant caspase-3/7 activation at the highest concentration; concentration eliciting genotoxicity in TK.6 micronuclei assay (TK.6 lymphoblasts; 24 hr): > 3125 ng/mL
C=CCc1cc(/C=C2\C(=O)NC(=S)N(c3ccccc3OC)C2=O)cc(OCC)c1O [Compound I-18, 4,6(1H,5H)-Pyrimidinedione, 5-[[3-ethoxy-4-hydroxy-5-(2-propen-1-yl)phenyl]methylene]dihydro-1-(2-methoxyphenyl)-2-thioxo-] | B (B represents 20-40%) | normalized ROS level [2]: higher than other compounds
CCC(=O)N1CCN(c2nnc(-c3ccc(C)cc3)c3ccccc23)CC1 [II-4, 1-Propanone, 1-[4-[4-(4-methylphenyl)-1-phthalazinyl]-1-piperazinyl]-] |  | normalized caspase 3/7 activity (HepG2 cells): did not exhibit any caspase activation; genotoxic effects, normalized β-galactosidase activity (bacteria): did not exhibit any genotoxic effects; micronuclei formation / genotoxic effect in TK.6 cells (TK.6 lymphoblasts): do not promote any micronuclei formation
Cc1cccc(Cn2cnc(NC(=O)c3cc(-c4cccnc4)nc4ccc(C)cc34)n2)c1 [III-2, 4-Quinolinecarboxamide, 6-methyl-N-[1-[(3-methylphenyl)methyl]-1H-1,2,4-triazol-3-yl]-2-(3-pyridinyl)-] | A (A represents less than 20% of increased proliferation of hFDPCs) | 
CCOCCc1nnc(NC(=O)c2cc(-c3ccccc3)nc3ccccc23)s1 [III-4, 4-Quinolinecarboxamide, N-[5-(2-ethoxyethyl)-1,3,4-thiadiazol-2-yl]-2-phenyl-] | B (B represents 20-40%) | 
CC(C)(C)Nc1nnc(SCc2cc(=O)oc3cc(O)ccc23)s1 [IV-1, 2H-1-Benzopyran-2-one, 4-[[[5-[(1,1-dimethylethyl)amino]-1,3,4-thiadiazol-2-yl]thio]methyl]-7-hydroxy-] | B (B represents 20-40%) | 
CCC(C)Cc1c(C)sc2[nH]c(SCc3cc(=O)oc4cc(O)ccc34)nc(=O)c12 (centres unmarked) [IV-4, Thieno[2,3-d]pyrimidin-4(1H)-one, 2-[[(7-hydroxy-2-oxo-2H-1-benzopyran-4-yl)methyl]thio]-6-methyl-5-(2-methylbutyl)-] | A (A represents less than 20% of increased proliferation of hFDPCs) | 
O=C(O)CC1SC(NN=Cc2ccc(OS(=O)(=O)c3ccc([N+](=O)[O-])cc3)cc2)=NC1=O (centres unmarked) [VI-6, 5-Thiazoleacetic acid, 4,5-dihydro-2-[2-[[4-[[(4-nitrophenyl)sulfonyl]oxy]phenyl]methylene] hydrazinyl]-4-oxo-] | A (A represents less than 20% of increased proliferation of hFDPCs) | 
COC(=O)c1c(S(C)(=O)=O)[nH]c(-c2ccccc2)nc1=O [VII-1] |  | normalized caspase 3/7 activity (HepG2 cells): did not exhibit any caspase activation; genotoxic effects, normalized β-galactosidase activity (bacteria): did not exhibit any genotoxic effects; micronuclei formation / genotoxic effect in TK.6 cells (TK.6 lymphoblasts): do not promote any micronuclei formation; sensitizing potential, normalized ARE-luciferase activity (Nrf2-ARE pathway): exhibited sensitizing potential
O=C1CNCc2[nH]c3ccccc3c2N1c1ccccc1 [VII-10, 1,4-Diazepino[6,5-b] indol-2(1H)-one, 3,4,5,6-tetrahydro-1-phenyl-] | B (B represents 20-40%) | 
COc1ccc(CCCc2nc3ccccc3[nH]2)cc1 [VII-14, 1H-Benzimidazole, 2-[3-(4-methoxyphenyl)propyl]-] |  | normalized caspase 3/7 activity (HepG2 cells): did not exhibit any caspase activation; micronuclei formation / genotoxic effect in TK.6 cells (TK.6 lymphoblasts): do not promote any micronuclei formation
COc1ccc(CC(=O)Nc2sc3c(c2C(=O)Nc2cccc([N+](=O)[O-])c2)CCC(C)C3)cc1 (centres unmarked) [VII-22, Benzo[b]thiophene-3-carboxamide, 4,5,6,7-tetrahydro-2-[[2-(4-methoxyphenyl)acetyl]amino]-6-methyl-N-(3-nitrophenyl)-] | A (A represents less than 20% of increased proliferation of hFDPCs) | 
